Where two headings read alike, the source gives them in different places.
Assays:
Assay in all cases: selectivity profiling in a panel of 340 wild-type kinases (Reaction Biology Europe)
Assay type in all cases: binding
[1] = target: T1, 340 wild-type kinases (Homo sapiens, UniProt Q02779)
T1 construct: purchased Reaction Biology Europe

[2] = target: T2, 340 wild-type kinases (Homo sapiens, UniProt Q9UPE1)
T2 construct: purchased Reaction Biology Europe

[3] = target: T3, 340 wild-type kinases (Homo sapiens, UniProt Q8IWQ3)
T3 construct: purchased Reaction Biology Europe
T3 sequence (Q8IWQ3 1-736): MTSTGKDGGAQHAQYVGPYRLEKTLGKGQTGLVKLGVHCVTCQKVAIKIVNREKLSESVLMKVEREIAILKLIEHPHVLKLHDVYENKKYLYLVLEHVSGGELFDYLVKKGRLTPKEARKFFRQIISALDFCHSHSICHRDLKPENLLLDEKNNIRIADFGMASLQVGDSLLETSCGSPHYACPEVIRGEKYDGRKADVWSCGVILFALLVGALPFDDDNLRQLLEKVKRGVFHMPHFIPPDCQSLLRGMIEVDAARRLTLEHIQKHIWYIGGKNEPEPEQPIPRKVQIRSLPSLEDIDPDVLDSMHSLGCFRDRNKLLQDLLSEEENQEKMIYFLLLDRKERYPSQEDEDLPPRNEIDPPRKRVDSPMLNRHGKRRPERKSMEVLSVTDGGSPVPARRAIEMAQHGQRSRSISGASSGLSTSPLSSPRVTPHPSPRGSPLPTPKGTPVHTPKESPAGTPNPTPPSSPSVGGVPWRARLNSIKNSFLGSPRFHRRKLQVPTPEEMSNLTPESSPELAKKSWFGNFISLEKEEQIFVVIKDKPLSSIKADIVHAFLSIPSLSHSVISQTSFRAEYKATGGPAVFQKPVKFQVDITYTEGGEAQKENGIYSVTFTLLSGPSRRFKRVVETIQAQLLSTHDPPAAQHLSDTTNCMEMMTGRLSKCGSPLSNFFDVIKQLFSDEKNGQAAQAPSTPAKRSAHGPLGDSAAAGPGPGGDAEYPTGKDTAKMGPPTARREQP

[4] = target: T4, 340 wild-type kinases (Homo sapiens, UniProt O75116)
T4 construct: purchased Reaction Biology Europe
T4 sequence (O75116 whole entry): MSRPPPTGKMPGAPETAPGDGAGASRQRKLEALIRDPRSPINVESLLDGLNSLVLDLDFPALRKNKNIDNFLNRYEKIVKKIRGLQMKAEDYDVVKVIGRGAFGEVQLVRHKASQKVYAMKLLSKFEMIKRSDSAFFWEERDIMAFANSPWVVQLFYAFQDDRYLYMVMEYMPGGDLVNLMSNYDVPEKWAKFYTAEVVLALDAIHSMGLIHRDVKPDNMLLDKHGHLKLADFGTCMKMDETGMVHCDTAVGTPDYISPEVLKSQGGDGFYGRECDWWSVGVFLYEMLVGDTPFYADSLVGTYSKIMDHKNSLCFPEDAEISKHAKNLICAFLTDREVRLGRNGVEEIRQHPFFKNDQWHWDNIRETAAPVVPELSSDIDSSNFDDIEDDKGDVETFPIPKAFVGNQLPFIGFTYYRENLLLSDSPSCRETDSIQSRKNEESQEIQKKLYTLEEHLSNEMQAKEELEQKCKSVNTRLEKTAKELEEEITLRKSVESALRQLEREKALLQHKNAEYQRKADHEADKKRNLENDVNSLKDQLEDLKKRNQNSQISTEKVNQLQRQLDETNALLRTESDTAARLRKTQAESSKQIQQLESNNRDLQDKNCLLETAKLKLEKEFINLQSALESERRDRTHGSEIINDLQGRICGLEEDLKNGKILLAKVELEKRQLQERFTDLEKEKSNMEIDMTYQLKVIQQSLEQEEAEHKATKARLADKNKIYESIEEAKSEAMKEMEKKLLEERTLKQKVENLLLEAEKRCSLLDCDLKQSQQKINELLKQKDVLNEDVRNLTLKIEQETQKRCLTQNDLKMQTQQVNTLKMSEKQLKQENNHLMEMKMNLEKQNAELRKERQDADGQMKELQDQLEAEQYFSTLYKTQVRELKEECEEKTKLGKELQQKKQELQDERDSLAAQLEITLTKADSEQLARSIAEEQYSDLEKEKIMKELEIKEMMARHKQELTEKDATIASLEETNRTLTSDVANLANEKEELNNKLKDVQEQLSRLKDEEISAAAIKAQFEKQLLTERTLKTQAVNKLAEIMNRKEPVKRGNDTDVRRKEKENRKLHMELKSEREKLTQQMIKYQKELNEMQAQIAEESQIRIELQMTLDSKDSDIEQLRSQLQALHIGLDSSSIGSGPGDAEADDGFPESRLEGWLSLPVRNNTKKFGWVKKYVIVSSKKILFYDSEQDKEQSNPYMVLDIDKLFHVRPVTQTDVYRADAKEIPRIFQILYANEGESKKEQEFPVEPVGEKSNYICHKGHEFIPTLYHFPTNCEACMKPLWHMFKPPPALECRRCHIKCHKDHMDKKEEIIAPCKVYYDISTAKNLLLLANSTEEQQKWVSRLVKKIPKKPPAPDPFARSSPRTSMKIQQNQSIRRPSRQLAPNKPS

[5] = target: T5, 340 wild-type kinases (Homo sapiens, UniProt P15735)
T5 construct: purchased Reaction Biology Europe
T5 sequence (P15735 1-406): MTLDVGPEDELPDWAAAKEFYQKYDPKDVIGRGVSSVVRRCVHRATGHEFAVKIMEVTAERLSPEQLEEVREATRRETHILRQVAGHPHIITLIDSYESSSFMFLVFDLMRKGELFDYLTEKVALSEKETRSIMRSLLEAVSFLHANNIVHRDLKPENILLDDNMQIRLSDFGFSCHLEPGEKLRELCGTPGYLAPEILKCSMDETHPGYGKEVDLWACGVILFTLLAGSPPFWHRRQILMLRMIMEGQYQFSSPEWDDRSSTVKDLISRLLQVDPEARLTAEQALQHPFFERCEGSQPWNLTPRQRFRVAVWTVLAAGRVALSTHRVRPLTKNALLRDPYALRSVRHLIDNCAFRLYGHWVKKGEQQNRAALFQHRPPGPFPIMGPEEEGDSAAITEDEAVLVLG

[6] = target: T6, 340 wild-type kinases (Homo sapiens, UniProt Q9UK32)
T6 construct: purchased Reaction Biology Europe
T6 sequence (Q9UK32 whole entry): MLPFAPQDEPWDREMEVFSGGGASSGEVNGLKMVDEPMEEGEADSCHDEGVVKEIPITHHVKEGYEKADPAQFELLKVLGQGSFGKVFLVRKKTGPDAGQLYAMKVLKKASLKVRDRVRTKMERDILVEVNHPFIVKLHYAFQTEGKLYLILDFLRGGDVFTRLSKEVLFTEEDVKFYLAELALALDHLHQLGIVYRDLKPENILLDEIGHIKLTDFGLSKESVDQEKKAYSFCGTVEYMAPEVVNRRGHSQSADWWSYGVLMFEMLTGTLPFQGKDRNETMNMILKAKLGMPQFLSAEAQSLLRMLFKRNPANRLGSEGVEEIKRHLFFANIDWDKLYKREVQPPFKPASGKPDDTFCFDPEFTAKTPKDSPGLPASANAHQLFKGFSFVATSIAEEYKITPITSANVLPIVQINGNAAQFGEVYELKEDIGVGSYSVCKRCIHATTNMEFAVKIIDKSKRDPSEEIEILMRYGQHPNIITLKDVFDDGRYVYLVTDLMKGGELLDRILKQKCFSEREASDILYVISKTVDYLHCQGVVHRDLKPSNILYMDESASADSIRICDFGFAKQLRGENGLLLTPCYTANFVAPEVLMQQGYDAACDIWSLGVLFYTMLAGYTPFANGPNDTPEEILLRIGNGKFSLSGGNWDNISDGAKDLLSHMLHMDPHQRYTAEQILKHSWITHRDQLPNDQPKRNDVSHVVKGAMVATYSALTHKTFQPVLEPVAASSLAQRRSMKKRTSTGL

[7] = target: T7, 340 wild-type kinases (Homo sapiens, UniProt Q9NR20)
T7 construct: purchased Reaction Biology Europe
T7 sequence (Q9NR20 1-520): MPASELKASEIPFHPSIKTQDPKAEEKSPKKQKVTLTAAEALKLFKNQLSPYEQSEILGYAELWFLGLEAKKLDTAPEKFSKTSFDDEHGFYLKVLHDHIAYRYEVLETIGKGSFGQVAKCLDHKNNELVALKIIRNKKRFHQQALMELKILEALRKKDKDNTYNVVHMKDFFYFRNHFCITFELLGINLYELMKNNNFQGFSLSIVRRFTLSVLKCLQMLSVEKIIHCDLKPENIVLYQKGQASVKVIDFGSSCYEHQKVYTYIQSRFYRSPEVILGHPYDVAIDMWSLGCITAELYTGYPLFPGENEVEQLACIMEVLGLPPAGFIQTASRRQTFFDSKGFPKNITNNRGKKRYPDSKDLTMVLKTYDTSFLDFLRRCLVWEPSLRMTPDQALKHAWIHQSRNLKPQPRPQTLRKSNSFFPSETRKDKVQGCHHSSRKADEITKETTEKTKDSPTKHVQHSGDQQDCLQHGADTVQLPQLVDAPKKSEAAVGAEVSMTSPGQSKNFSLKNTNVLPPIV

[8] = target: T8, 340 wild-type kinases (Homo sapiens, UniProt Q9NYL2)
T8 construct: purchased Reaction Biology Europe

[9] = target: T9, 340 wild-type kinases (Homo sapiens, UniProt P17948)
T9 construct: purchased Reaction Biology Europe
T9 sequence (P17948 27-1338): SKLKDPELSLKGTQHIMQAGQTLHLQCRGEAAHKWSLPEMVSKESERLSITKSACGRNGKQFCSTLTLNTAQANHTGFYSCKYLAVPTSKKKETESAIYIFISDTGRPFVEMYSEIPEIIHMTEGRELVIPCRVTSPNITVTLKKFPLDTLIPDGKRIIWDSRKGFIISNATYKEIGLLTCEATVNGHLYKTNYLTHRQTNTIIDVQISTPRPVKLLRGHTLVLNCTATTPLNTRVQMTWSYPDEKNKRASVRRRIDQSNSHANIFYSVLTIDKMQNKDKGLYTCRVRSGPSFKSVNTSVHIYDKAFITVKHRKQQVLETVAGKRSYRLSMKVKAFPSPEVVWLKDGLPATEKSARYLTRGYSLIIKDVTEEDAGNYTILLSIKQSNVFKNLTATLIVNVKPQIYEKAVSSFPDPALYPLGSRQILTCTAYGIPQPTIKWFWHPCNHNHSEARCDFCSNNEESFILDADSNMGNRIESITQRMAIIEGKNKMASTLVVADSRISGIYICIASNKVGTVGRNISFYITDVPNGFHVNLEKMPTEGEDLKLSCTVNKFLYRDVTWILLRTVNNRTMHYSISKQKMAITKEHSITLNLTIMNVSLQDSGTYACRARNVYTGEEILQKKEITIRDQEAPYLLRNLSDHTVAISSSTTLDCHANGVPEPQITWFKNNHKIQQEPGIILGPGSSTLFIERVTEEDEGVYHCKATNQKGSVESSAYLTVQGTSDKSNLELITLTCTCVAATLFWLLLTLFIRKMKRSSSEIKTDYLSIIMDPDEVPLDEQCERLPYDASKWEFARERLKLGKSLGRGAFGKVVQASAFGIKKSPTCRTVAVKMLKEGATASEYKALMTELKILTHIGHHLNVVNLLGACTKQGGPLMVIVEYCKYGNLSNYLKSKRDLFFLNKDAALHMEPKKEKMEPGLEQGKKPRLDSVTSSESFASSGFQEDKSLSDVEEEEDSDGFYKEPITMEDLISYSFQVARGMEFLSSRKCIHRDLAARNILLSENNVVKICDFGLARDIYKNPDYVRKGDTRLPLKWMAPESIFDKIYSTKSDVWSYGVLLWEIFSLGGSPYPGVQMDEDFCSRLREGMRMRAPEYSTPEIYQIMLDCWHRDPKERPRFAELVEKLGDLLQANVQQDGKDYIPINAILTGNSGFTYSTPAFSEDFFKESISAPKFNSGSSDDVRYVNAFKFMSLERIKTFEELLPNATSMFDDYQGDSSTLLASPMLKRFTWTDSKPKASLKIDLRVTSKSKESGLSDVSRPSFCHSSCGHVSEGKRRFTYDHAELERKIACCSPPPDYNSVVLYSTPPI

[10] = target: T10, 340 wild-type kinases (Homo sapiens, UniProt Q9P0L2)
T10 construct: purchased Reaction Biology Europe

[11] = target: T11, 340 wild-type kinases (Homo sapiens, UniProt P16234)
T11 construct: purchased Reaction Biology Europe
T11 sequence (P16234 24-1089): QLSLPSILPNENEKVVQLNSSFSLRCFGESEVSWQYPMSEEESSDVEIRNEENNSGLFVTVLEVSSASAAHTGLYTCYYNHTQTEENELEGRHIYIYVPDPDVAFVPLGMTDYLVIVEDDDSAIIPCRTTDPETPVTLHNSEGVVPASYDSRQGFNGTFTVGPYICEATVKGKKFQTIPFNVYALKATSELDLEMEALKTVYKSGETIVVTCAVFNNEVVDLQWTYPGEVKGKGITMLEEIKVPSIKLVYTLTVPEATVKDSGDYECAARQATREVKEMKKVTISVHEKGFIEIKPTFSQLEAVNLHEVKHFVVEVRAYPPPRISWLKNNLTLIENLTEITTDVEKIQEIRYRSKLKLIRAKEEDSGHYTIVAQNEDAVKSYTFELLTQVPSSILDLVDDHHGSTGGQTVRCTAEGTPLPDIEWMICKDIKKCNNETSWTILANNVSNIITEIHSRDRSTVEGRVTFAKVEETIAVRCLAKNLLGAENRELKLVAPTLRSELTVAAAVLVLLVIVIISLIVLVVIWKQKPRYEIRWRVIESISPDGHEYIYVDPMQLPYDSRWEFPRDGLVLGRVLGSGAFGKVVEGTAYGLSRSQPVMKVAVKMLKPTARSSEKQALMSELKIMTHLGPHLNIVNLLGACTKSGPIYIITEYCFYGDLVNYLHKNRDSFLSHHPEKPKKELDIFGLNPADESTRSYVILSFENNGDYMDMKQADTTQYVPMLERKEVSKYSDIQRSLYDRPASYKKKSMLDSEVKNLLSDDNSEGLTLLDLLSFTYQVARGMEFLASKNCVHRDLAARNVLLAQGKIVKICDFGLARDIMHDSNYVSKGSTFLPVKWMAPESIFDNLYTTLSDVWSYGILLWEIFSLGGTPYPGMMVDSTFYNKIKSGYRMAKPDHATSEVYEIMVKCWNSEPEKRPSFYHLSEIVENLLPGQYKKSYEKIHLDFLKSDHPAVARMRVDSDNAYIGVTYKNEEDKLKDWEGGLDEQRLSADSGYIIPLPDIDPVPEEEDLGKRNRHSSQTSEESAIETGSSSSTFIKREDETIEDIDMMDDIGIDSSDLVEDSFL

[12] = read-out: DYRK4 residual activity

T2 sequence (Q9UPE1 whole entry): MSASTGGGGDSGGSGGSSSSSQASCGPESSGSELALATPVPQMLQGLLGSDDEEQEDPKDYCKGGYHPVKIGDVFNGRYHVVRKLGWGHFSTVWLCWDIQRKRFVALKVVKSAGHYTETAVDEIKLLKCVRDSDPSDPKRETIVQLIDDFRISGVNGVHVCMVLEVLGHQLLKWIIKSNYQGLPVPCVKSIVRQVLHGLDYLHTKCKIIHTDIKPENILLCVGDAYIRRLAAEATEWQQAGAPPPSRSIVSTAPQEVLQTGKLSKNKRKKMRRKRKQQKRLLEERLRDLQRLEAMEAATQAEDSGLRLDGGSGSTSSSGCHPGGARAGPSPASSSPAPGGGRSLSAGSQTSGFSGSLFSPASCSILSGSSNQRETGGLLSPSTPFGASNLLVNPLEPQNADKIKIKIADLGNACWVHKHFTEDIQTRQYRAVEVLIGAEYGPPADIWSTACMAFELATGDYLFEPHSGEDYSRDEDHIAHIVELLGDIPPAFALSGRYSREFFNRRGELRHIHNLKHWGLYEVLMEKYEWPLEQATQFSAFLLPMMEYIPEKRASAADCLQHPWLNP

**Q.** `CNC(=O)c1ccc2c(c1)C(=O)c1ccc(Nc3ccc(F)c(NC(=O)C4CC4)c3)cc1CC2` [Compound 2015] was tested. Which remaining activity at 0.2 µM ([1]; 0.2 µM 2015, read-out: MAP3K10 residual activity) did it give?
**A.** 111%

**Q.** And the remaining activity at 1 µM ([1]; 1 µM 2015, read-out: MAP3K10 residual activity)?
**A.** 106%

**Q.** And the remaining activity at 0.2 µM ([1]; MAP3K10, 0.2 µM, read-out: residual activity)?
**A.** 111%

**Q.** What about the remaining activity at 1 µM ([1]; MAP3K10, 1 µM, read-out: residual activity) of the same compound?
**A.** 106%

**Q.** And the remaining activity at 0.2 µM ([2]; 0.2 µM 2015, read-out: STK23 residual activity)?
**A.** 90.7%

**Q.** And the remaining activity at 1 µM ([2]; 1 µM 2015, read-out: STK23 residual activity)?
**A.** 94.1%

**Q.** And the remaining activity at 0.2 µM ([2]; STK23, 0.2 µM, read-out: residual activity)?
**A.** 90.7%

**Q.** What about the remaining activity at 0.2 µM ([3]; 0.2 µM 2015, read-out: BRSK2 residual activity) of the same compound?
**A.** 103%

**Q.** What about the remaining activity at 1 µM ([3]; 1 µM 2015, read-out: BRSK2 residual activity) of the same compound?
**A.** 101%

**Q.** What about the remaining activity at 0.2 µM ([3]; BRSK2, 0.2 µM, read-out: residual activity) of the same compound?
**A.** 103%

**Q.** What about the remaining activity at 1 µM ([3]; BRSK2, 1 µM, read-out: residual activity) of the same compound?
**A.** 101%

**Q.** And the remaining activity at 0.2 µM ([4]; 0.2 µM 2015, read-out: ROCK2 residual activity)?
**A.** 89%

**Q.** What about the remaining activity at 1 µM ([4]; 1 µM 2015, read-out: ROCK2 residual activity) of the same compound?
**A.** 86.3%

**Q.** And the remaining activity at 0.2 µM ([4]; ROCK2, 0.2 µM, read-out: residual activity)?
**A.** 89%

**Q.** And the remaining activity at 1 µM ([4]; ROCK2, 1 µM, read-out: residual activity)?
**A.** 86.3%

**Q.** What about the remaining activity at 0.2 µM ([5]; 0.2 µM 2015, read-out: PHKG2 residual activity) of the same compound?
**A.** 102%

**Q.** What about the remaining activity at 1 µM ([5]; 1 µM 2015, read-out: PHKG2 residual activity) of the same compound?
**A.** 98.8%

**Q.** What about the remaining activity at 0.2 µM ([5]; PHKG2, 0.2 µM, read-out: residual activity) of the same compound?
**A.** 102%

**Q.** What about the remaining activity at 1 µM ([5]; PHKG2, 1 µM, read-out: residual activity) of the same compound?
**A.** 98.8%

**Q.** What about the remaining activity at 0.2 µM ([6]; 0.2 µM 2015, read-out: RPS6KA6 residual activity) of the same compound?
**A.** 89.7%

**Q.** And the remaining activity at 1 µM ([6]; 1 µM 2015, read-out: RPS6KA6 residual activity)?
**A.** 81.3%

**Q.** And the remaining activity at 0.2 µM ([6]; RPS6KA6, 0.2 µM, read-out: residual activity)?
**A.** 89.7%

**Q.** What about the remaining activity at 1 µM ([6]; RPS6KA6, 1 µM, read-out: residual activity) of the same compound?
**A.** 81.3%

**Q.** What about the remaining activity at 0.2 µM [7, 12] of the same compound?
**A.** 108%

**Q.** What about the remaining activity at 1 µM [7, 12] of the same compound?
**A.** 97.1%

**Q.** What about the remaining activity at 0.2 µM ([7]; read-out: residual activity) of the same compound?
**A.** 108%

**Q.** And the remaining activity at 1 µM ([7]; read-out: residual activity)?
**A.** 97.1%

**Q.** And the remaining activity at 0.2 µM ([8]; 0.2 µM 2015, read-out: ZAK residual activity)?
**A.** 110%

**Q.** And the remaining activity at 1 µM ([8]; 1 µM 2015, read-out: ZAK residual activity)?
**A.** 104%

**Q.** What about the remaining activity at 0.2 µM ([8]; ZAK, 0.2 µM, read-out: residual activity) of the same compound?
**A.** 110%

**Q.** What about the remaining activity at 1 µM ([8]; ZAK, 1 µM, read-out: residual activity) of the same compound?
**A.** 104%

**Q.** What about the remaining activity at 0.2 µM ([9]; 0.2 µM 2015, read-out: VEGFR1 residual activity) of the same compound?
**A.** 113%

**Q.** And the remaining activity at 1 µM ([9]; 1 µM 2015, read-out: VEGFR1 residual activity)?
**A.** 116%

**Q.** And the remaining activity at 0.2 µM ([9]; VEGFR1, 0.2 µM, read-out: residual activity)?
**A.** 113%

**Q.** And the remaining activity at 1 µM ([9]; VEGFR1, 1 µM, read-out: residual activity)?
**A.** 116%

**Q.** What about the remaining activity at 0.2 µM ([10]; 0.2 µM 2015, read-out: MARK1 residual activity) of the same compound?
**A.** 97.9%

**Q.** And the remaining activity at 1 µM ([10]; 1 µM 2015, read-out: MARK1 residual activity)?
**A.** 95.7%

**Q.** And the remaining activity at 0.2 µM ([10]; MARK1, 0.2 µM, read-out: residual activity)?
**A.** 97.9%

**Q.** What about the remaining activity at 1 µM ([10]; MARK1, 1 µM, read-out: residual activity) of the same compound?
**A.** 95.7%

**Q.** And the remaining activity at 0.2 µM ([11]; 0.2 µM 2015, read-out: PDGFRalpha residual activity)?
**A.** 102%

**Q.** What about the remaining activity at 1 µM ([11]; 1 µM 2015, read-out: PDGFRalpha residual activity) of the same compound?
**A.** 95.4%

**Q.** And the remaining activity at 0.2 µM ([11]; PDGFRalpha, 0.2 µM, read-out: residual activity)?
**A.** 102%

**Q.** What about the remaining activity at 1 µM ([11]; PDGFRalpha, 1 µM, read-out: residual activity) of the same compound?
**A.** 95.4%

From PMC11864979, “First-in-class ultralong-target-residence-time p38α inhibitors as a mitosis-targeted therapy for colorectal cancer” (Nature Cancer, 2025)
